The values that follow come from paper PMC9879991, “Biomolecular condensates formed by designer minimalistic peptides” (Nature Communications, 2023).

Data set [1] in a line: Encapsulation efficiency of peptide droplets, rhodamine B payload. In kind it is physicochemical. The conditions noted are these: C initial 10 µM, 20 mM peptide; for %EE: 20 mM Tris + 0.2 M NaCl pH 8, 15,000 g 10 min, supernatant absorbance 555 nm. The source says: (§1) Next, we studied how peptide composition affects the encapsulation efficiency of the droplets by using GFP, rhodamine B, and fluorescein as fluorescent payload model systems (Fig. 4). We analyzed the encapsulation efficiency of the fluorescent payloads by using both confocal microscopy and absorbance measurements of the payloads in the dilute vs. the condensed phase (Fig. 4a–c). […] WGR-1 has the highest EE of fluorescein. In addition to π-π interactions, WGR-1 might form hydrogen bonding with the hydroxyl groups or electrostatic interactions with the deprotonated carboxylic acid of the dye.
(§2) Stock solutions (1 mM) of the fluorescein and rhodamine B dye molecules were prepared in 20 mM Tris buffer. Coacervate solutions of 20 mM peptide were prepared in 20 mM Tris + 0.2 M NaCl at pH 8. From these, a volume of 148.5 µl was mixed with 1.5 µl of dye solution in a 1.5 ml Eppendorf tube and pipetted. After 10 min the samples were centrifuged at 15,000 × g for 10 min. A volume of 120 μl from the supernatant was collected and vortexed and then the absorbance of 35 μl triplicates was measured (at λ = 490 nm for fluorescein and λ = 555 nm for RhB) in a 384 well black plate by Biotek H1 synergy plate reader (purchased from Lumitron, Israel). For GFP, a 7.5 µl of 20 mM Tris buffer to a 7.5 μl GFP aliquot from the purchased stock solution. The 15 µl of GFP solution was added to 135 µl of peptide solution and was mixed in a 1.5 ml Eppendorf tube and pipetted. The concentration of GFP at the supernatant was measured via fluorescence. All experiments were performed in triplicate. The concentration of the supernatant solutions determinate by calibration curves. Imaging was made to 30 μl of uncentrifuged samples. Efficiency of encapsulation (%EE) was calculated using Eq. 2. 2 %EE=CT−Csup/CT

For data set [2] the following is noted: solution NMR, S.D. in next row. The source says: Source data are provided as a Source Data file.
(1 picture or pasted object on this page, not shown here)

Data set [3] in a line: Turbidity analysis of WGR-1 with and without 0.5% FITC-labeled peptide. In kind it is physicochemical. The conditions noted are these: Tris buffer pH 8, 0.2 M NaCl, mean of n=3.
A short description of data set [4]: Encapsulation efficiency of peptide droplets, fluorescein payload. The conditions noted are these: C initial 10 µM, 20 mM peptide; for %EE: 20 mM Tris + 0.2 M NaCl pH 8, 15,000 g 10 min, supernatant absorbance 490 nm. In kind it is physicochemical.
From the text: as §1, §2

A further data set concerns the target T1, GFP (Aequorea victoria, UniProt P42212).
T1 construct: purchased Abcam (purchased from Zotal)
Description: Encapsulation efficiency of peptide droplets, GFP payload. In kind it is physicochemical. The conditions noted are these: C initial 50 µg/ml, 20 mM peptide; for %EE: 20 mM Tris + 0.2 M NaCl pH 8, 15,000 g 10 min, supernatant fluorescence Ex 395/Em 509 nm.
From the text: as §1, §2

A short description of data set [5]: Turbidity assay of WGR-1 (10 mM) in citrate, Tris and ammonium bicarbonate buffer. In kind it is physicochemical. The settings on record: 10 mM peptide, mean of n=3. The protocol: Supplementary Figure 2. Turbidity assay of WGR-1 (10 mM) in citrate buffer (pH 6-7), Tris buffer (pH 6-10) and ammonium bicarbonate buffer (ABC, pH 9-10). Turbidity was monitored at λ=500 nm.
Source data are provided as a Source Data file. […]
iii) Performed solution NMR analysis to determine the pKa of the terminal amine for each […]
The results of each analysis are detailed below: i) To analyze the effect of the ions in each of the buffers on peptide LLPS, we performed turbidity assay of 10 mM WGR-1 using citrate buffer at pH 6-7, tris buffer at pH 6-10 and ammonium carbonate buffer at pH 9-10, with 200 mM NaCl. For citrate buffer, we measured sample turbidity at pH 6, the optimal value for this buffer, and in addition at pH 7, to compare the effect of citrate and tris on LLPS. Similarly, we analyzed the turbidity in ammonium bicarbonate buffer at pH 9 in additional to pH 10, to compare the effect of tris and ammonium bicarbonate on LLPS.
Higher turbidity is observed at pH 7 with citrate compared to tris and with ammonium bicarbonate at pH 9-10 compared to tris. […]
bicarbonate facilitate LLPS, presumably by reducing the electrostatic repulsion between […]
citrate and -1/-2 for ammonium bicarbonate). […]
In light of these findings and the obvious ion effect, we decided to present the new phase diagrams in tris in main text Figure 2b and the phase diagrams with the different buffers in Supplementary Fig. 1. The text was revised accordingly (see revised manuscript, revised text is highlighted in red). In addition, the turbidity assay of the different buffers was added to […]
Supplementary Fig. 2. […]

No end group written: not given here.

As for WGRGRGRGWPGVGY [WGR-1], the “%EE” value in data set [1] (replicate 1, given as fraction) worked out at 0.9106; in data set [1] (replicate 2, given as fraction), 0.9029; in data set [1] (replicate 3, given as fraction) it was 0.8168; in data set [4] (replicate 1, given as fraction), 0.888; in data set [4] (replicate 2, given as fraction) it was 0.8098; in data set [4] (replicate 3, given as fraction), 0.7632. Also, the “%EE” value was 0.8616 at GFP (replicate 1, given as fraction); 0.9526 at GFP (replicate 2, given as fraction); 0.9328 on GFP (replicate 3, given as fraction). Also, the “Encapsulation efficiency (EE)” value in data set [1] (20 mM Tris + 0.2 M NaCl pH 8, supernatant absorbance 555 nm, mean of n=3, in percent) is reported as 87.6774%; in data set [4] (20 mM Tris + 0.2 M NaCl pH 8, supernatant absorbance 490 nm, mean of n=3, in percent) it was 82.0333%; at GFP (20 mM Tris + 0.2 M NaCl pH 8, supernatant fluorescence, average of replicates, in percent) it was 91.5647%. In data set [2], the “D dilute phase (NMR), apparent diffusion coefficient” value is on record as 1.91E-10 m^2/sec. Further, the “Turbidity as asorbance at 350 nm” value in data set [3] (peptide concentration 10 (mM)) came to 0.3393; in data set [3] (peptide concentration 20 (mM)) it was 2.135. In addition, the “Turbidity as asorbance at 500 nm” value in data set [5] (AC (ammonium bicarbonate) buffer, pH 9, 200 mM NaCl) amounted to 2.028; in data set [5] (AC (ammonium bicarbonate) buffer, pH 10, 200 mM NaCl), 2.068; in data set [5] (Tris buffer, pH 6, 200 mM NaCl), 0.007333; in data set [5] (Tris buffer, pH 7, 200 mM NaCl) it was 0.01967; in data set [5] (Tris buffer, pH 8, 200 mM NaCl), 0.2073; in data set [5] (Tris buffer, pH 9, 200 mM NaCl), 1.416. Further, the “Turbidity as asorbance at 500 nm” value in data set [5] (Tris buffer, pH 10, 200 mM NaCl) was found to be 1.71; in data set [5] (citrate buffer, pH 6, 200 mM NaCl), 0.02367; in data set [5] (citrate buffer, pH 7, 200 mM NaCl) it was 0.974.
